Data set [1] has as its target T1, glucocerebrosidase (Gcase) (Homo sapiens, UniProt P04062).
T1 sequence (P04062 40-536): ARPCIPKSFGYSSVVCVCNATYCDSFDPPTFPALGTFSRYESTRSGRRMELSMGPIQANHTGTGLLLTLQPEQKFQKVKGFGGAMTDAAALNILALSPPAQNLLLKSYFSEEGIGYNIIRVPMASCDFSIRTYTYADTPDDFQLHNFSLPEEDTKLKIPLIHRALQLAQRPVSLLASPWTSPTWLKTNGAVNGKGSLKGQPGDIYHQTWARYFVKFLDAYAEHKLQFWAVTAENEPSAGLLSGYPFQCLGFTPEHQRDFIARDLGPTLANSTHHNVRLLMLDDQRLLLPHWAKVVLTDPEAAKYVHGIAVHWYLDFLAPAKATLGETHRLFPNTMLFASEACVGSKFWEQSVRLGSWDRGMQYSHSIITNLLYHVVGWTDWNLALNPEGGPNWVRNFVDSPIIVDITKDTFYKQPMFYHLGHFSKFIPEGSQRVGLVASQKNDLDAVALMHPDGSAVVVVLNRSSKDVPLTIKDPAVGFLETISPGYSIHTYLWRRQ
In words: Glucocerebrosidase (Gcase) activation assay, 4-methylumbelliferyl-beta-D-glucopyranoside substrate, with saposin C. Format: biochemical. The conditions noted are these: for activation at 0.1 µM: 0.1 μM test compound, read-out: Percent Gcase Activation 0.1 μM Test Compound; for activation at 1 µM: 1 μM test compound, read-out: Percent Gcase Activation 1 μM Test Compound. The method, boiled down: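 Compounds tested at 1.0 and 0.1 μM, then in 8-point 3-fold curves, were pre-incubated 30 min at room temperature with 10 nM GCase plus 100 nM saposin C in PS/triton micelles, pH 4.7. Reaction with substrate (2 mM in micelles before mixing) ran 15 min; stopped at pH 12.5, read at ex 365/em 440 nm.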

A short description of data set [2]: Compound solubility in water. Format: physicochemical.

≈ marks a conversion by molar mass, not a printed value.

What is called solubility is the dissolved amount per volume that the medium holds. Consider `Cc1cc(-c2cccc(F)c2)nc2c(C(=O)N[C@H](C)C3CC3)ncn12` [III-94], for which, in data set [1], the activation at 0.1 µM is 10 to 20% and the activation at 1 µM is more than 60%. For the same compound, the concentration in solution in data set [2] (solubility) was 8.4 µg/mL (≈ 24.8 µM).
Regarding `Cc1cc(-c2ncccn2)nc2c(C(=O)NC(C)(C)C3CC3)ncn12` [III-95], in data set [1], the activation at 0.1 µM was less than 10% and the activation at 1 µM is less than 30%. In data set [2], this compound returned a solubility of 6.4 µg/mL (≈ 19 µM).
With `Cc1cc(-c2ccccn2)nc2c(C(=O)N[C@H]3CC[C@H](OCC(C)C)CC3)ncn12` [III-96], in data set [1], the activation at 0.1 µM was less than 10% and the activation at 1 µM was 30 to 60%. The solubility in data set [2] was 6.6 µg/mL (≈ 16.2 µM).
Take `COc1cncc(-c2cc(C)n3cnc(C(=O)N[C@@H](C)C4CC4)c3n2)c1` [III-97]: in data set [1], the activation at 0.1 µM was less than 10% and the activation at 1 µM is 30 to 60%. Further, in data set [2], the solubility amounted to 17.3 µg/mL (≈ 49.2 µM).
Taken in the same sequence, the figures for `COc1cccc(-c2cc(C)n3cnc(C(=O)N[C@@H](C)C4CC4)c3n2)n1` [III-98] were 10 to 20%, more than 60% and 5.2 µg/mL (≈ 14.8 µM).
On to `COc1cc(-c2cc(C)n3cnc(C(=O)N[C@@H](C)C4CC4)c3n2)ccn1` [III-99], for which, in data set [1], the activation at 0.1 µM was less than 10% and the activation at 1 µM was less than 30%. This compound yielded a solubility in data set [2] of 25.6 µg/mL (≈ 72.8 µM).
Regarding `COc1ccnc(-c2cc(C)n3cnc(C(=O)NC(C)C4CC4)c3n2)c1` (stereo not drawn) [III-100], in data set [1], the activation at 0.1 µM was less than 10% and the activation at 1 µM was 30 to 60%. Further, in data set [2], the solubility stood at 7.2 µg/mL (≈ 20.5 µM).
`COCCOc1cccc(-c2cc(C)n3cnc(C(=O)N[C@@H](C)C4CC4)c3n2)c1` [III-101]: in data set [1], the activation at 0.1 µM was 10 to 20% and the activation at 1 µM is more than 60%. The solubility in data set [2] was found to be 16 µg/mL (≈ 40.6 µM).
Turning to `Cc1cc(C)n2cnc(C(=O)N[C@@H](C)C3CC4(CCC4)C3)c2n1` [III-102], in data set [1], the activation at 0.1 µM is less than 10% and the activation at 1 µM is more than 60%. In addition, in data set [2], the solubility came out at 12.1 µg/mL (≈ 38.7 µM).
Taken in the same sequence, the figures for `Cc1cc(-c2cccc(Cl)n2)nc2c(C(=O)N[C@@H](C)C3CC3)ncn12` [III-103] were less than 10%, more than 60% and 3.8 µg/mL (≈ 10.7 µM).
On to `Cc1cc(-c2cc(Cl)ccn2)nc2c(C(=O)N[C@@H](C)C3CC3)ncn12` [III-104], for which, in data set [1], the activation at 0.1 µM fell in the range of 10 to 20% and the activation at 1 µM is more than 60%. The solubility in data set [2] is 8 µg/mL (≈ 22.5 µM).
Taken in the same sequence, the figures for `Cc1cc(-c2cncc(F)c2)nc2c(C(=O)N[C@@H](C)C3CC3)ncn12` [III-105] were less than 10%, 30 to 60% and 24.9 µg/mL (≈ 73.4 µM).
As for `Cc1cc(-c2ccnc(Cl)c2)nc2c(C(=O)N[C@@H](C)C3CC3)ncn12` [III-106], in data set [1], the activation at 0.1 µM is less than 10% and the activation at 1 µM was in the range of 30 to 60%. The solubility in data set [2] amounted to 12.8 µg/mL (≈ 36 µM).
For `Cc1cc(-c2cnc(Cl)c(F)c2)nc2c(C(=O)N[C@@H](C)C3CC3)ncn12` [III-107], in data set [1], the activation at 0.1 µM is less than 10% and the activation at 1 µM lay within 30 to 60%. In data set [2], the solubility stood at 1.9 µg/mL (≈ 5.08 µM).
In the case of `Cc1cc(-c2ccc(F)c(Cl)n2)nc2c(C(=O)N[C@@H](C)C3CC3)ncn12` [III-108], in data set [1], the activation at 0.1 µM was less than 10% and the activation at 1 µM lay in the range of 30 to 60%. The compound further returned a solubility in data set [2] of 14.5 µg/mL (≈ 38.8 µM).
Turning to `Cc1cc(-c2cccc(F)c2)nc2c(C(=O)NC(C)(C)C3CC3)ncn12` [III-109], in data set [1], the activation at 0.1 µM was more than 20% and the activation at 1 µM was more than 60%. The solubility in data set [2] was 1.1 µg/mL (≈ 3.12 µM).
Taken in the same sequence, the figures for `Cc1cc(-c2cccc(Cl)c2)nc2c(C(=O)N[C@@H](C)C3CC3)ncn12` [III-110] were more than 20%, more than 60% and 3.6 µg/mL (≈ 10.1 µM).
As to `Cc1cc(-c2cc(F)cc(F)c2)nc2c(C(=O)N[C@@H](C)C3CC3)ncn12` [III-111], in data set [1], the activation at 0.1 µM is more than 20% and the activation at 1 µM is more than 60%. In data set [2], this compound returned a solubility of 1.3 µg/mL (≈ 3.65 µM).
On to `Cc1cc(-c2cc(F)ccc2F)nc2c(C(=O)N[C@@H](C)C3CC3)ncn12` [III-112], for which, in data set [1], the activation at 0.1 µM was more than 20% and the activation at 1 µM was more than 60%. For the same compound, the solubility in data set [2] turned out to be 5.5 µg/mL (≈ 15.4 µM).
For the compound `CCc1cc(-c2cccc(F)c2)nc2c(C(=O)N[C@@H](C)C3CC3)ncn12` [III-113], in data set [1], the activation at 0.1 µM was more than 20% and the activation at 1 µM was more than 60%. This compound yielded a solubility in data set [2] of 1.7 µg/mL (≈ 4.82 µM).
Turning to `Cc1cc(N2CCCC(F)(F)C2)nc2c(C(=O)N[C@@H](C)C3CC3)ncn12` [III-114], in data set [1], the activation at 0.1 µM was in the range of 10 to 20% and the activation at 1 µM was more than 60%. In data set [2], this compound showed a solubility of 26 µg/mL (≈ 71.5 µM).
For the compound `Cc1cc(N2CCC(F)(F)CC2)nc2c(C(=O)N[C@@H](C)C3CC3)ncn12` [III-115], in data set [1], the activation at 0.1 µM was less than 10% and the activation at 1 µM was less than 30%. This compound also displayed a solubility in data set [2] of 20.5 µg/mL (≈ 56.4 µM).
Consider `COCc1cc(-c2cc(F)cc(F)c2)nc2c(C(=O)N[C@@H](C)C3CC3)ncn12` [III-116], for which, in data set [1], the activation at 0.1 µM lay in the range of 10 to 20% and the activation at 1 µM is more than 60%. Further, the solubility in data set [2] was determined as 0.6 µg/mL (≈ 1.55 µM).
Taken in the same sequence, the figures for `Cc1cc(-c2ncc[nH]2)nc2c(C(=O)NC(C)(C)C3CC3)ncn12` [III-117] were less than 10%, less than 30% and 20.5 µg/mL (≈ 63.2 µM).
On to `Cc1cc(N2CCC(F)(F)CC2)nc2c(C(=O)NC(C)(C)C3CC3)ncn12` [III-118], for which, in data set [1], the activation at 0.1 µM is less than 10% and the activation at 1 µM is 30 to 60%. Also, in data set [2], the concentration in solution (solubility) came to 9.7 µg/mL (≈ 25.7 µM).
With `Cc1cc(Oc2cccc(F)c2)nc2c(C(=O)N[C@@H](C)C3CC3)ncn12` [III-119], in data set [1], the activation at 0.1 µM is less than 10% and the activation at 1 µM fell in the range of 30 to 60%. Besides, the solubility in data set [2] turned out to be 8.8 µg/mL (≈ 24.8 µM).
For the compound `Cc1cc(Oc2ccccc2F)nc2c(C(=O)N[C@@H](C)C3CC3)ncn12` [III-120], in data set [1], the activation at 0.1 µM is less than 10% and the activation at 1 µM was 30 to 60%. The solubility in data set [2] is 27.7 µg/mL (≈ 78.2 µM).
As for `Cc1cc(Oc2ccccn2)nc2c(C(=O)N[C@@H](C)C3CC3)ncn12` [III-121], in data set [1], the activation at 0.1 µM was less than 10% and the activation at 1 µM is less than 30%. The compound also returned a solubility in data set [2] of 34.9 µg/mL (≈ 103 µM).
`Cc1cc(Oc2cccnc2)nc2c(C(=O)N[C@@H](C)C3CC3)ncn12` [III-122]: in data set [1], the activation at 0.1 µM was less than 10% and the activation at 1 µM is less than 30%. For the same compound, in data set [2], the concentration in solution (solubility) was 32.8 µg/mL (≈ 97.2 µM).
Taken in the same sequence, the figures for `Cc1cc(Oc2ccncc2)nc2c(C(=O)N[C@@H](C)C3CC3)ncn12` [III-123] were less than 10%, less than 30% and 29.6 µg/mL (≈ 87.7 µM).
Taken in the same sequence, the figures for `Cc1cc(-c2cccc(F)c2)nc2c(C(=O)NC(C)(C)C)ncn12` [III-124] were more than 20%, more than 60% and 3.4 µg/mL (≈ 10.4 µM).
Taken in the same sequence, the figures for `Cc1cc(-c2cc(F)cc(F)c2)nc2c(C(=O)NC(C)(C)C)ncn12` [III-125] were more than 20%, more than 60% and 0.2 µg/mL (≈ 0.581 µM).
`COc1cc(F)cc(-c2cc(C)n3cnc(C(=O)NC(C)(C)C)c3n2)c1` [III-126]: in data set [1], the activation at 0.1 µM was more than 20% and the activation at 1 µM was more than 60%. Moreover, in data set [2], the solubility was found to be 0.1 µg/mL (≈ 0.281 µM).
On to `COc1cccc(-c2cc(C)n3cnc(C(=O)NC(C)(C)C)c3n2)c1` [III-127], for which, in data set [1], the activation at 0.1 µM was more than 20% and the activation at 1 µM was more than 60%. The concentration in solution in data set [2] (solubility) was 1.4 µg/mL (≈ 4.14 µM).

The values are drawn from patent US9920061B2, “Imidazo[1,5-A]pyrimidinyl carboxamide compounds and their use in the treatment of medical disorders” (Lysosomal Therapeutics Inc., priority 2016, dated 2018).
